What was measured:
[1] = Half-life in human liver microsomes (HLM); type: in vitro ADME; settings: human liver microsomes (HLM, HL101); human liver microsomes 0.78 mg/mL, 1 μM compound, NADPH, pH 7.4, 37° C.
Experimental: Test compounds (1 μM) are incubated with 3.3 mM MgCl2 and 0.78 mg/mL HLM (HL101) in 100 mM potassium phosphate buffer (pH 7.4) at 37° C. on the 96-deep well plate. The reaction mixture is split into two groups, a non-P450 and a P450 group. NADPH is only added to the reaction mixture of the P450 group. An aliquot of samples of P450 group is collected at 0, 10, 30, and 60 min time point, where 0 min time point indicated the time when NADPH is added into the reaction mixture of P450 group. […] Collected aliquots are extracted with acetonitrile solution containing an internal standard. […] The compound concentration in supernatant is measured by LC/MS/MS system.
The half-life value is obtained by plotting the natural logarithm of the peak area ratio of compounds/internal standard versus time. The slope of the line of best fit through the points yields the rate of metabolism (k). This is converted to a half-life value using following equations:

[2] = biological target: T1, P2X7 receptor (IL-1β release from THP-1 cells) (Homo sapiens, UniProt Q99572); assay: IL-1β release assay in differentiated THP-1 cells stimulated with BzATP (Example 9); type: cell-based; settings: for inhibition at 0.3 µM: 0.3 μM concentration, BzATP 250 uM, read-out: IL-1β % Inhib. @ 0.3 or 0.1 μM; for IC50: released IL-1β as in Example 9, four parameter logistic fit
T1 construct: host or cells: THP-1 cells differentiated with LPS and IFN-γ
T1 sequence (Q99572 1-595): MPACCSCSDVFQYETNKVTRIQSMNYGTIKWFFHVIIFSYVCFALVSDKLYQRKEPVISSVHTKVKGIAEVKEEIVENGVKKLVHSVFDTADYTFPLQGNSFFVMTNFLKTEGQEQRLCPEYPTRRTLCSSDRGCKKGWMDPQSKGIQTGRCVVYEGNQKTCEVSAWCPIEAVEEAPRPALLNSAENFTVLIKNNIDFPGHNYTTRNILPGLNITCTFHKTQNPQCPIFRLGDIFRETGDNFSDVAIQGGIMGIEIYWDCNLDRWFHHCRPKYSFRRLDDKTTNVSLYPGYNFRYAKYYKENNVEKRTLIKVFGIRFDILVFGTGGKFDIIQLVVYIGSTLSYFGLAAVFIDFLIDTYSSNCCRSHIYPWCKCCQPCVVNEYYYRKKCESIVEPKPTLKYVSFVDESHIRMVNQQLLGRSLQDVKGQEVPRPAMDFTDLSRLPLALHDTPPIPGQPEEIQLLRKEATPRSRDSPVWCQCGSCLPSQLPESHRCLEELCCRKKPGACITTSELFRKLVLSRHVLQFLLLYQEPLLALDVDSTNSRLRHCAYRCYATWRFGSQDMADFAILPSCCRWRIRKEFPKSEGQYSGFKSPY
Experimental: The cells are then pretreated for 30 minutes with the compound of interest at the appropriate concentration in RPMI media containing 100 IU/mL penicillin, 100 ug/mL streptomycin. […] 30 uL of cell supernatant is then collected and IL-1β levels determined via ELISA (R&D systems Cat. #HSLB50) according to manufacturer's recommendations using the Tecan Safire plate reader. Background adjusted IL-1β levels of drug treated and non-treated cells are used to calculate the percent inhibition.
The compounds set forth in Table 1 were tested for activity in a cellular model as described herein. […] Measurements were made and IC50 values, presented in Table 2, below, were determined by fitting the data to a four parameter logistic equation using GraphPad Prism software (GraphPad Software, Inc). The equation may be expressed by the following formula:
Y=Bottom+(Top−Bottom)/(1+10̂((Log EC50−X)*HillSlope))
Where X is the logarithm of concentration, Y is the response and Y starts at Bottom and goes to Top with a sigmoid shape.

[3] = Pharmacokinetic evaluation following intravenous and oral administration in rats; type: in vivo; settings: rat, plasma; male Sprague-Dawley rats; PO 1 to 5 mg/kg vs IV, AUCinf dose-normalized; mean % F
Experimental: Male Sprague-Dawley rats are acclimatized for at least 24 hours prior to experiment initiation. During the acclimation period, all animals receive food and water ad libitum. However, food but not water is removed from the animals' cages at least 12 hours before initiation of the experiment. During the first 3 hours of experimentation, the animals receive only water ad libitum. At least three animals each are tested for intravenous and oral dosage. For intravenous formulation, compounds were dissolved (0.25 to 1 mg/mL) in a mixture of 3% dimethyl sulfoxide, 40% PEG 400 and the rest percentage of 40% Captisol in water (w/v). The animals are weighed before dosing. The determined body weight is used to calculate the dose volume for each animal.
Dose volume (mL/kg)=1 mg/kg/formulation concentration (mg/mL)
In instances where the formulation concentrations were less than 0.5 mg/mL, the dosing volume is about 2 mL/kg.
For oral formulation, compounds of this invention are suspended (0.5 to 0.75 mg/mL) in a mixture of 5% of 10% Tween 80 in water (v/v) and 95% of 0.5% methyl cellulose in water (w/v). PO rats are typically dosed through oral gavage following the same dose volume formula as IV to achieve a dose level of 1 to 5 mg/kg. For IV dosing, blood samples are collected (using a pre-heparinized syringe) via the jugular vein catheter at 2, 5, 15, 30, 60, 120, 180, 300, 480, and 1440 minutes post dosing. For PO dosing, blood samples are collected (using a pre-heparinized syringe) via the jugular vein catheter before dosing and at 5, 15, 30, 60, 120, 180, 300, 480, and 1440 minutes post dosing. About 250 uL of blood is obtained at each time point from the animal. Equal volumes of 0.9% normal saline are replaced to prevent dehydration. The whole blood samples are maintained on ice until centrifugation. Blood samples are then centrifuged at 14,000 rpm for 10 minutes at 4° C. and the upper plasma layer transferred into a clean vial and stored at −80° C. The resulting plasma samples are then analyzed by liquid chromatography-tandem mass spectrometry. Following the measurement of plasma samples and dosing solutions, plasma concentration-time curve is plotted. Plasma exposure is calculated as the area under the concentration-time curve extrapolated to time infinite (AUCinf). The AUCinf is averaged and the oral bioavailability (% F) for individual animal is calculated as:
AUCinf(PO)/AUCinf(IV), normalized to their respective dose levels.
The % F is reported as the mean % F of all animals dosed orally with the compound of the invention at the specified level (Table 4).

| SMILES | half-life at 1 μM [1] | inhibition at 0.3 µM [2] | IC50 [2] | bioavailability [3] |
| --- | --- | --- | --- | --- |
| O=C(CC12CC3CC(CC(C3)C1)C2)Nc1cccc2c(=O)n(CC3CCNCC3)ccc12 [Compound 501] | 22.8 min | > 76% | 6.17 nM | 0 to 25% |
| C[C@H](C(N)=O)n1ccc2c(NC(=O)CC3CCCCCC3)cccc2c1=O [Compound 558] | 61.2 min | > 76% | 23.8 nM | 0 to 25% |
| CC(C(=O)Nc1cccc2c(=O)n([C@H](C)C(N)=O)ccc12)C1CCCCCC1 (stereo partly shown) [Compound 600] | 15 min | > 76% | 12.2 nM | 0 to 25% |
| C[C@@H](C(N)=O)n1ccc2c(NC(=O)CC34CC5CC(CC(C5)C3)C4)cccc2c1=O [Compound 572, (S)-2-[5-(2-Adamantan-1-yl-acetylamino)-1-oxo-1H-isoquinolin-2-yl]-propionamide] | 40.8 min |  | 1.21 nM | 26 to 50% |
| C[C@H](C(=O)O)n1ccc2c(NC(=O)CC34CC5CC(CC(C5)C3)C4)cccc2c1=O [Compound 601] | 22.2 min | > 76% | 9.08 nM | 0 to 25% |
| O=C(CC1CCCCCC1)Nc1cccc2c(=O)n(CCO)ccc12 [Compound 544] | 20.4 min | > 76% | 27.8 nM | 0 to 25% |
| CC(C(N)=O)n1ccc2c(NC(=O)CC34CC5CC(CC(C5)C3)C4)cccc2c1=O (stereo not shown) [Compound 530] | 34.8 min | 26 to 50% | 4.37 nM | 0 to 25% |
| O=C(CC1(O)CCCCCC1)Nc1cccc2c(=O)n(CCO)ccc12 [Compound 520] | 72.6 min | 51 to 75% | 165 nM | 26 to 50% |
| C[C@H](C(N)=O)n1ccc2c(NC(=O)CC3(O)CCCCCC3)cccc2c1=O [Compound 555] | 45.6 min | > 76% | 41.3 nM | 26 to 50% |
| C[C@H](CO)n1ccc2c(NC(=O)CC3CCCCCC3)cccc2c1=O [Compound 606, 2-Cycloheptyl-N-[2-((R)-2-hydroxy-1-methyl-ethyl)-1-oxo-1,2-dihydro-isoquinolin-5-yl]-acetamide] | 23.4 min | > 76% | 4.59 nM | 0 to 25% |
| CC(C)[C@H](C(N)=O)n1ccc2c(NC(=O)CC34CC5CC(C)(CC(C)(C5)C3)C4)cccc2c1=O [Compound 529] | 39 min | 26 to 50% | 4.65 nM | 0 to 25% |
| CC12CC3CC(C)(C1)CC(CC(=O)Nc1cccc4c(=O)n(CC5CCNCC5)ccc14)(C3)C2 [Compound 518, 2-(3,5-Dimethyl-adamantan-1-yl)-N-(1-oxo-2-piperidin-4-ylmethyl-1,2-dihydro-isoquinolin-5-yl)-acetamide] | 324 min | > 76% | 60.1 nM | 0 to 25% |

Compounds with a lower IC50 [2], results first:

| half-life at 1 μM [1] | inhibition at 0.3 µM [2] | IC50 [2] | bioavailability [3] | SMILES |
| --- | --- | --- | --- | --- |
| 45.6 min |  | 0.088 nM | 0 to 25% | C[C@H](C(N)=O)n1ccc2c(NC(=O)CC34CC5CC(CC(C5)C3)C4)c(Cl)ccc2c1=O [Compound 602, (R)-2-[5-(2-Adamantan-1-yl-acetylamino)-6-chloro-1-oxo-1H-isoquinolin-2-yl]-propionamide] |
| 34.8 min | > 76% | 0.198 nM | 0 to 25% | O=C(CC12CC3CC(CC(C3)C1)C2)Nc1cccc2c(=O)n(C(CO)CO)ccc12 [Compound 507] |
| 16.2 min | > 76% | 0.365 nM | 0 to 25% | C[C@H](C(N)=O)n1ccc2c(NC(=O)CC34CC5CC(CC(C5)C3)C4)cccc2c1=O [Compound 559] |
| 37.8 min | > 76% | 1 nM | 0 to 25% | C[C@H](CO)N1CCc2c(NC(=O)CC34CC5CC(CC(C5)C3)C4)cccc2C1=O [Compound 526] |
| 49.8 min | > 76% | 0.779 nM | 0 to 25% | O=C(CC12CC3CC(CC(C3)C1)C2)Nc1cccc2c1CCN(C(CO)CO)C2=O [Compound 508] |
| 42 min | > 76% | 1.09 nM | 0 to 25% | NC(=O)[C@@H](CO)n1ccc2c(NC(=O)CC34CC5CC(CC(C5)C3)C4)cccc2c1=O [Compound 599, (R)-2-[5-(2-Adamantan-1-yl-acetylamino)-1-oxo-1H-isoquinolin-2-yl]-3-hydroxy-propionamide] |

— patent US20100184802A1, “Bicycloheteroaryl Compounds as P2X7 Modulators and Uses Thereof” (priority 2006, published 2010)
